Assay results: patent US8119657B2, “Enantiomeric compositions of 2-amino-1-(2-isopropylpyrazolo[1,5-α]pyridin-3-yl)propan-1-one and related methods” (MediciNova, Inc., priority 2009, dated 2012)
Entries after “also recorded” stand apart in the source; their conditions may differ. Where two headings read alike, the source gives them in different places. Marks after values point to notes of the source that are not given here.

Assays:
Water solubility = format: physicochemical
[1] = system: rat chronic constriction injury model of neuropathic pain; experiment: Rat chronic constriction injury model of neuropathic pain (von Frey mechanical allodynia); format: in vivo; conditions: rat CCI, oral 25 mg/kg, 2 hours post-dosing, 25 mg/kg
From the text: The (S)- and the (R)-enantiomer of AV1013 were each evaluated in a rat chronic constriction injury model of neuropathic pain (see, Ledeboer et. al., Neuron Glia Biology, (2006), p 279-291), to determine whether differences in their activity could be observed.
To induce allodynia, male Sprague-Dawley rats underwent chronic constriction injury (CCI) to the sciatic nerve as described by Bennett and Xie, Pain 1988; 33(1):87-107. The plantar surface of the hind paws was stimulated with von Frey filaments (Stoelting) to induce a withdrawal response by blinded personnel. The bending force of fiber required to induce a 50% withdrawal response was calculated following CCI surgery (pre-dosing baseline).
Allodynic rats (N=5-6), received an oral administration of (S)-AV1013 (25 mg/kg), AV1013-R (100 mg/kg) or vehicle. Two hours post-dosing, 50% paw withdrawal threshold was determined by blinded testers using von Frey filaments. The 50% withdrawal threshold prior to CCI surgery, pre-dosing (10 days post-surgery), and 2 hours post-dosing are plotted in FIG. 3.

formalin paw model = experiment: Inflammatory pain model (formalin paw model) in mice; format: in vivo; conditions: for % Change from Control / Licking Score (Mean +/− SEM): mice
Experimental: The model employed is described in detail by Wheeler-Aceto et al (Psychopharmacology, 104, p 35-44, (1991)). Briefly, mice were given an intraplantar injection of 5% formalin (25 μl) into the posterior left paw. […] Mice were briefly observed at 1 minute intervals between 15 and 50 minutes after the injection of formalin and the number of times mice were observed licking the injected paw was recorded. 10 mice were studied in each group. The test was performed blind.
AV1013-S was evaluated at 3 doses (10, 25 and 50 mg/kg), administered p.o. 60 minutes before the test (i.e. 45 minutes before formalin), and compared with a vehicle control group. Gabapentin (300 mg/kg p.o.), administered under the same experimental conditions, was used as reference substance. The experiment therefore included 5 groups.
Data were analyzed by comparing treated groups with vehicle control using unpaired Mann-Whitney U tests.

[2] = system: rat morphine withdrawal model; experiment: Rat morphine withdrawal model (naloxone-precipitated); format: in vivo; conditions: rats, 25 mg/kg PO QD for 7 days
Experimental: The ability of (S)-AV1013 to reduce/ameliorate withdrawal behavior relative to a control was evaluated in rats. The study was conducted in accordance with the method disclosed by Hutchinson et. al., Brain Behavior and Immunity, V. 23, (2009), p 240-250.
Rats were administered morphine in escalating doses over a five day period to induce dependence (15-22.5 mg/kg/day). (S)-AV1013 (25 mg/kg PO QD) or vehicle (saline) administration was initiated two days prior and continued concomitant with the morphine dosing regimen for a total of 7-days. On day seven all animals were administered naloxone SC to precipitate withdrawal symptoms. Specific withdrawal behaviors were scored over 6×, 10 minute intervals. A total of 15 rats per group were evaluated.

[3] = Bioavailability and duration of action of (S)-AV1013
[4] = Rat pharmacokinetics of the enantiomers after oral dosing of racemic AV1013; format: in vivo; conditions: for Cmax: po
Experimental: Three male Sprague-Dawley rats were dosed orally via gavage with 25 mg/kg racemic AV1013 dissolved in water. Serial blood samples were collected from the tail vein at 5, 15, and 30 min, 1, 3, and 6 hours post dosing. Samples were processed for plasma via centrifugation and plasma samples were stored frozen prior to analysis.
A sensitive and specific chiral HPLC/MS/MS bioanalytical method for the detection of (S)-AV1013 and (R)-AV1013 enantiomers in rat and dog plasma was utilized. AV1013 enantiomers and the internal standard (AV1040, an analog of AV1013) were isolated from plasma by protein precipitation induced by acetonitrile. After centrifugation to sediment the proteins, the supernatant fractions were analyzed by high performance liquid chromatography (LC) in conjunction with a triple quadrupole mass spectrometer that used electrospray ionization in tandem with positive ionization (MS/MS) according to the conditions below. The LLOQ (lower level of quantitation) was typically <3 ng/mL.
Analysis of pharmacokinetic parameters was performed for each enantiomer via LC/MS bioanalytics and WinNonlin™ analysis (version 4.0.1; Pharsight Corp., Mountain View, Calif.), commercial software designed for the analysis of PK data. The PK modeling was based on a non-compartmental model with gradual input into the central compartment. Computation of the area under the curve (AUC) was based on the sum of trapezoidal areas for the plotted plasma concentration-time data. AUC and associated parameters were estimated by log-linear regression analysis of the terminal phase.

[5] = 10 mg/kg p.o. 60 min before the test
[6] = 25 mg/kg p.o. 60 min before the test

What does the source list for `CC(C)c1nn2ccccc2c1C(=O)[C@H](C)N` [(S)-AV1013, (S)-2-amino-1-(2-isopropylpyrazolo[1,5-a]pyridin-3-yl)propan-1-one]?
water solubility (Water solubility): good water solubility; attenuation of mechanical allodynia (50% paw withdrawal threshold) [1]: substantially more potent in treating neuropathic pain than the corresponding (R) enantiomer; attenuation of mechanical allodynia (50% paw withdrawal threshold) ([1]; listed as (S)-enantiomer): more potent in vivo than is the (R)-enantiomer; % Change from Control (formalin paw model; [5]): −16%; Licking Score (Mean +/− SEM) (formalin paw model; [5]): 13.1 +/− 1.5; % Change from Control (formalin paw model; [6]): −16%; Licking Score (Mean +/− SEM) (formalin paw model; [6]): 13.1 +/− 1.8; % Change from Control (formalin paw model; 50 mg/kg p.o. 60 min before the test, 50 mg/kg): −45%; Licking Score (Mean +/− SEM) (formalin paw model; 50 mg/kg p.o. 60 min before the test, p < 0.01): 8.6 +/− 1.4 *; analgesic/anti-inflammatory activity in mouse formalin paw model (late-phase) (formalin paw model; single oral dose of 50 mg/kg): demonstrated analgesic/anti-inflammatory activity; withdrawal behaviors relative to vehicle [2]: reduced withdrawal behaviors; also recorded: reduced withdrawal symptoms relative to those receiving vehicle; in vivo duration of action [3]: 2 to 24 h; bioavailability ([3]; in vivo, share of the (S)-enantiomer dosed that is bioavailable): > 70%; AUC(0-t) ([4]; male, Sprague-Dawley, oral 25 mg/kg racemic AV1013, plasma): 5950 ng·h/mL; AUC ([4]; male, Sprague-Dawley, plasma, 25 mg/kg, oral dosing of racemate, rounded values, read-out: calculated area under the curves (AUC)): 6000 ng·h/mL; Cmax ([4]; male, Sprague-Dawley, plasma, 25 mg/kg, oral 25 mg/kg racemic AV1013, plasma, read-out: Cmax): 1260 ng/mL; Cmax ([4]; male, Sprague-Dawley, plasma, 25 mg/kg, oral dosing of racemate, rounded values, read-out: mean peak plasma levels (Cmax)): 1300 ng/mL; AUC of (S) relative to (R) enantiomer ([4]; oral dosing of racemate): around 17 fold; Cmax of (S) relative to (R) enantiomer ([4]; oral dosing of racemate): at least 3 fold
